# Measurements taken from patent US9604996B2 (Bayer Pharma Aktiengesellschaft, priority 2013, dated 2017).
# Molecular target: T1, human adenosine A2b receptor (Homo sapiens, UniProt P29275)
# T1 construct: expressed in transfected cells; host or cells: CHO-K1 (Chinese Hamster Ovary) with CRE-luciferase reporter
# T1 sequence (P29275 1-332): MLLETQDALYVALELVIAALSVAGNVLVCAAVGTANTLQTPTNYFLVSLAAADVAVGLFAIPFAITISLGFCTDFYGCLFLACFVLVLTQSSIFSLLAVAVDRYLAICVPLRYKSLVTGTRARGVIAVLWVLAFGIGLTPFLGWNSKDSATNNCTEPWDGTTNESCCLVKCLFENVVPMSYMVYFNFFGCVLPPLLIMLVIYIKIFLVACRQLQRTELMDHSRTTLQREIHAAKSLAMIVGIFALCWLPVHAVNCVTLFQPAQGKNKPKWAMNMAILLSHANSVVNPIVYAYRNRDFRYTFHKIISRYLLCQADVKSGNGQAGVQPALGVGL
# Assay: Cellular reporter gene (CRE-luciferase) A2b receptor antagonist assay in recombinant CHO-K1 cells stimulated with NECA
# Type: cell-based
# Settings: recombinant CHO-K1 cell line, co-incubation with EC50 concentration of NECA, 3 hours, in some cases means, rounded to two significant digits
# Procedure: B-1. Cellular In Vitro Tests for Determining A2b Receptor Activity and Adenosine Receptor Selectivity
# The identification of selective antagonists of the human adenosine A2b receptor and the quantification of the efficacy and selectivity of the compounds according to the invention was carried out with the aid of recombinant cell lines for the human adenosine receptors A1, A2a, A2b and A3. These cell lines were originally derived from an ovarepithelial cell of the hamster (Chinese Hamster Ovary, CHO-K1, American Type Culture Collection, Manassas, Va. 20108, USA). In addition to the respective recombinantly expressed adenosine receptor for testing the efficacy at the A1, A2a and A2b receptors, the cell lines contain a reporter gene construct where expression of the firefly (Photinus pyralis) luciferase is under the control of a promoter which can be activated via intracellular signal cascades by stimulation of the receptors with the (not subtype-selective) adenosine receptor agonist NECA (5′-N-ethylcarboxamidoadenosine) [S. J. Hill, J. G. Baker, S. Rhees, Curr. Opin. Pharmacol. 1, 526-532 (2001)].
# In the case of the A2a and A2b cell lines, this is a minimal promoter having a plurality of cAMP-responsive elements (CRE). Stimulation of the Gs coupled A2b or A2a receptors by NECA ultimately leads, via formation of cAMP, to CRE-dependent induction of luciferase expression, which is detected 3 hours after the start of the incubation with NECA using a detection solution in a suitable luminometer. For testing the antagonists, initially, in a pre-experiment, the concentration of NECA which, at the test day in question, results in half-maximum stimulation of luciferase expression (EC50 concentration) is determined By joint incubation of this EC50 concentration of NECA with the substances to be tested, it is possible to determine their antagonistic activity.
row,Compound,IC50 [nM]
1,"CCn1c(=O)c2c(C)c(C(=O)N3CCC(O)C(O)C3)sc2n(CCC(F)(F)F)c1=O (racemic) [Example 119, 6-[(3,4-Dihydroxypiperidin-1-yl)carbonyl]-3-ethyl-5-methyl-1-(3,3,3-trifluoropropyl)thieno [2,3-d]pyrimidine-2,4(1H,3H)-dione]",210
2,"Cc1c(C(=O)N2CCNC(=O)C2)sc2c1c(=O)n(CCc1cccnc1)c(=O)n2CCC=C(F)F [Example 34, 1-(4,4-Difluorobut-3-en-1-yl)-5-methyl-6-[(3-oxopiperazin-1-yl)carbonyl]-3-[2-(pyridin-3-yl)ethyl]thieno[2,3-d]pyrimidine-2,4(1H,3H)-dione]",120
3,"Cc1c(C(=O)N2CCC(O)CC2)sc2c1c(=O)n(CC(C)c1ccccc1)c(=O)n2CCC(F)(F)F (racemic) [Example 43, 6-[(4-Hydroxypiperidin-1-yl)carbonyl]-5-methyl-3-(2-phenylpropyl)-1-(3,3,3-trifluoropropyl)thieno[2,3-d]pyrimidine-2,4(1H,3H)-dione (racemate)]",6.3
4,"CCn1c(=O)c2c(C)c(C(=O)N3CCNC(=O)C3(C)C)sc2n(CCC(F)(F)F)c1=O [Example 38, 6-[(2,2-Dimethyl-3-oxopiperazin-1-yl)carbonyl]-3-ethyl-5-methyl-1-(3,3,3-trifluoropropyl)thieno[2,3-d]pyrimidine-2,4(1H,3H)-dione]",140
5,"CCCn1c(=O)c2c(C)c(C(=O)N3CCC(O)(CO)CC3)sc2n(CCOC(F)(F)F)c1=O [Example 80, 6-{[4-Hydroxy-4-(hydroxymethyl)piperidin-1-yl]carbonyl}-5-methyl-3-propyl-1-[2-(trifluoromethoxy)ethyl]thieno[2,3-d]pyrimidine-2,4(1H,3H)-dione]",27
6,"CCn1c(=O)c2c(C(C)F)c(C(=O)N3CCNC(=O)C3)sc2n(CCC(F)(F)F)c1=O (single isomer, unassigned) [Example 148, 3-Ethyl-5-(1-fluoroethyl)-6-[(3-oxopiperazin-1-yl)carbonyl]-1-(3,3,3-trifluoropropyl)thieno[2,3-d]pyrimidine-2,4(1H,3H)-dione]",240
7,"Cc1c(C(=O)N2CCC(O)CC2)sc2c1c(=O)n(CC(F)(F)c1ccccc1)c(=O)n2CCC(F)(F)F [Example 51, 3-(2,2-Difluoro-2-phenylethyl)-6-[(4-hydroxypiperidin-1-yl)carbonyl]-5-methyl-1-(3,3,3-trifluoropropyl)thieno[2,3-d]pyrimidine-2,4(1H,3H)-dione]",16
8,"Cc1c(C(=O)N2CCC(C)(O)CC2)sc2c1c(=O)n(CCc1ccccc1)c(=O)n2CCC(F)(F)F [Example 67, 6-[(4-Hydroxy-4-methylpiperidin-1-yl)carbonyl]-5-methyl-3-(2-phenylethyl)-1-(3,3,3-trifluoropropyl)thieno[2,3-d]pyrimidine-2,4(1H,3H)-dione]",13
9,"CCn1c(=O)c2c(C(F)(F)F)c(C(=O)N3CCC(O)(CO)CC3)sc2n(CCC(F)(F)F)c1=O [Example 83, 3-Ethyl-6-{[4-hydroxy-4-(hydroxymethyl)piperidin-1-yl]carbonyl}-5-(trifluoromethyl)-1-(3,3,3-trifluoropropyl)thieno[2,3-d]pyrimidine-2,4(1H,3H)-dione]",56
10,"CCCn1c(=O)c2c(C)c(C(=O)N3CCC(O)(CO)CC3)sc2n(CCC(F)(F)F)c1=O [Example 77, 6-{[4-Hydroxy-4-(hydroxymethyl)piperidin-1-yl]carbonyl}-5-methyl-3-propyl-1-(3,3,3-trifluoropropyl)thieno[2,3-d]pyrimidine-2,4(1H,3H)-dione]",75
11,"Cc1c(C(=O)N2CCC(O)(C(F)(F)F)CC2)sc2c1c(=O)n(CCc1ccccc1)c(=O)n2CCC(F)(F)F [Example 69, 6-{[4-Hydroxy-4-(trifluoromethyl)piperidin-1-yl]carbonyl}-5-methyl-3-(2-phenylethyl)-1-(3,3,3-trifluoropropyl)thieno[2,3-d]pyrimidine-2,4(1H,3H)-dione]",60
12,"COCCn1c(=O)n(CCc2ccccc2)c(=O)c2c(C)c(C(=O)N3CCNC(=O)C3)sc21 [Example 28, 1-(2-Methoxyethyl)-5-methyl-6-[(3-oxopiperazin-1-yl)carbonyl]-3-(2-phenylethyl)thieno[2,3-d]pyrimidine-2,4(1H,3H)-dione]",150
13,"Cc1c(C(=O)N2CCC(O)CC2)sc2c1c(=O)n(CC(C)(C)c1ccccc1)c(=O)n2CCC(F)(F)F [Example 50, 6-[(4-Hydroxypiperidin-1-yl)carbonyl]-5-methyl-3-(2-methyl-2-phenylpropyl)-1-(3,3,3-trifluoropropyl)thieno[2,3-d]pyrimidine-2,4(1H,3H)-dione]",150
14,"COCCn1c(=O)n(CC(F)(F)c2ccccc2)c(=O)c2c(C)c(C(=O)N3CCNC(=O)C3)sc21 [Example 94, 3-(2,2-Difluoro-2-phenylethyl)-1-(2-methoxyethyl)-5-methyl-6-[(3-oxopiperazin-1-yl)carbonyl]thieno[2,3-d]pyrimidine-2,4(1H,3H)-dione]",490
15,"O=C(c1sc2c(c1C(F)F)c(=O)n(CCc1ccccc1)c(=O)n2CCC(F)(F)F)N1CCC(O)CC1 [Example 84, 5-(Difluoromethyl)-6-[(4-hydroxypiperidin-1-yl)carbonyl]-3-(2-phenylethyl)-1-(3,3,3-trifluoropropyl)thieno[2,3-d]pyrimidine-2,4(1H,3H)-dione]",19
16,"Cc1c(C(=O)N2CCC(O)(CO)CC2)sc2c1c(=O)n(CCc1ccccc1)c(=O)n2CCC(F)(F)F [Example 68, 6-{[4-Hydroxy-4-(hydroxymethyl)piperidin-1-yl]carbonyl}-5-methyl-3-(2-phenylethyl)-1-(3,3,3-trifluoropropyl)thieno[2,3-d]pyrimidine-2,4(1H,3H)-dione]",20
17,"CCCn1c(=O)c2c(C(F)F)c(C(=O)N3CCC(O)CC3)sc2n(CCOC(F)(F)F)c1=O [Example 150, 5-(Difluoromethyl)-6-[(4-hydroxypiperidin-1-yl)carbonyl]-3-propyl-1-[2-(trifluoromethoxy)ethyl]thieno[2,3-d]pyrimidine-2,4(1H,3H)-dione]",9.8
18,"Cc1c(C(=O)N2CCC(O)CC2)sc2c1c(=O)n(CCc1ccccc1)c(=O)n2CCOC(F)(F)F [Example 99, 6-[(4-Hydroxypiperidin-1-yl)carbonyl]-5-methyl-3-(2-phenylethyl)-1-[2-(trifluoromethoxy)ethyl]thieno[2,3-d]pyrimidine-2,4(1H,3H)-dione]",10
19,"CCc1c(C(=O)N2CCC(O)CC2)sc2c1c(=O)n(CC)c(=O)n2CCC(F)(F)F [Example 87, 3,5-Diethyl-6-[(4-hydroxypiperidin-1-yl)carbonyl]-1-(3,3,3-trifluoropropyl)thieno[2,3-d]pyrimidine-2,4(1H,3H)-dione]",26
20,"CCn1c(=O)c2c(C(F)F)c(C(=O)N3CCC(O)(CC)CC3)sc2n(CCC(F)(F)F)c1=O [Example 125, 5-(Difluoromethyl)-3-ethyl-6-[(4-ethyl-4-hydroxypiperidin-1-yl)carbonyl]-1-(3,3,3-trifluoropropyl)thieno[2,3-d]pyrimidine-2,4(1H,3H)-dione]",48
21,"Cc1c(C(=O)N2CCC(O)CC2)sc2c1c(=O)n(CCc1ccccc1F)c(=O)n2CCC=C(F)F [Example 5, 1-(4,4-Difluorobut-3-en-1-yl)-3-[2-(2-fluorophenyl)ethyl]-6-[(4-hydroxypiperidin-1-yl)carbonyl]-5-methylthieno[2,3-d]pyrimidine-2,4(1H,3H)-dione]",52
22,"Cc1c(C(=O)N2CCC(O)CC2)sc2c1c(=O)n(CCn1ccnc1)c(=O)n2CCC(F)(F)F [Example 55, 6-[(4-Hydroxypiperidin-1-yl)carbonyl]-3-[2-(1H-imidazol-1-yl)ethyl]-5-methyl-1-(3,3,3-trifluoropropyl)thieno[2,3-d]pyrimidine-2,4(1H,3H)-dione]",250
23,"CCCn1c(=O)c2c(C(F)F)c(C(=O)N3CCC(O)CC3)sc2n(CCC(F)(F)F)c1=O [Example 141, 5-(Difluoromethyl)-6-[(4-hydroxypiperidin-1-yl)carbonyl]-3-propyl-1-(3,3,3-trifluoropropyl)thieno[2,3-d]pyrimidine-2,4(1H,3H)-dione]",57
24,"Cc1c(C(=O)N2CCC(O)(CO)CC2)sc2c1c(=O)n(CC(F)(F)c1ccccc1)c(=O)n2CCC(F)(F)F [Example 70, 3-(2,2-Difluoro-2-phenylethyl)-6-{[4-hydroxy-4-(hydroxymethyl)piperidin-1-yl]carbonyl}-5-methyl-1-(3,3,3-trifluoropropyl)thieno [2,3-d]pyrimidine-2,4(1H,3H)-dione]",28
